Measurements: patent US20070066682A1, “Arylalkylamine vanadium (V) salts for the treatment and/or prevention of Diabetes mellitus” (priority 2005, published 2007)
Entries after “also recorded” stand apart in the source; their conditions may differ.

Key:
[1] = tested on: insulin receptor; assay: Tyrosine phosphorylation of insulin receptor in isolated rat adipocytes; type: cell-based; settings: 25 μM
Experimental: Isolated fat cells were disrupted for total membrane preparation by hypo-osmotic lysis in a 20 mM HES buffer and an antiprotease and antiphosphatase cocktail as reported by Abella et al. (2003, Diabetes 52: 1004-1013). Protein concentrations were determined by the Bradford method (Bradford, 1976, Anal. Biochem. 72: 248-254) with gamma-globulin as protein concentration standard. Immunoprecipitation and immunoblot assays were performed as previously described by Abella et al. (2004, Id.) with the use of a monoclonal antiphosphotyrosine antibody for the immunoprecipitation and an anti-insulin receptor antibody for immunoblotting, respectively. SDS-polyacrylamide gel electrophoresis was performed on membrane proteins following conventional procedures. Proteins were transferred to Immobilon and immunoblotting was performed as reported by Castello et al. (1994, J. Biol. Chem. 269: 5905-5912).
The mechanism of action of B6V10 was investigated in isolated rat adipocytes. Adipose cells from Wistar rats were incubated for different times in the presence of 25 μM hexaquis(benzylammonium) decavanadate (B6V10). […] Subsequently, 2-deoxyglucose uptake (results shown in FIG. 7A), tyrosine phosphorylation of insulin receptor (FIG. 7B), phospho-Thr^308-protein kinase B (FIG. 7C) and phospho-Ser^473-protein kinase B (FIG. 7D) was measured. […]

[2] = tested on: db/db mice; assay: Chronic treatment of obese diabetic db/db mice, glycemia; type: in vivo, mouse
Experimental: (§1) Male Wistar rats weighting 180-220 g were purchased from Harlan (Interfauna Ibèrica S.A., Spain). Diabetes was induced by a single intraperitoneal injection of a freshly prepared solution of streptozotocin (in some studies the dose was 45 mg/kg body weight and in some others 100 mg/kg body weight dissolved in 50 mM citrate buffer, pH 4.5). Only diabetic animals with glycemia above 300 mg/dl were used. The animals were housed in animal quarters at 22° C., with a 12 h light/12 h dark cycle and were fed ad libitum. All procedures used were approved by the animal ethical committee of the University of Barcelona, Spain. Male mice C57 BL/Ks bearing the db/db mutation (Jackson Laboratories, Bar Harbor, Me.) were purchased from Harlan France (Gannat, France). C57BL/6J male mice were assigned for 16 weeks to very high-fat diet containing (in kcal): 72% from fat, 28% from proteins and <1% from carbohydrates (Burcelin et al., 2002, Am. J. Physiol. Endocrinol. Metab 282: E834-E842).

[3] = tested on: adipocyte lipolysis; assay: Adipocyte lipolysis; type: cell-based
[4] = tested on: mice made glucose intolerant by a high fat diet; assay: Glucose tolerance and plasma insulin in high-fat fed mice, acute administration; type: in vivo, mouse; settings: dihydrate
Experimental: Male Wistar rats weighting 180-220 g were purchased from Harlan (Interfauna Ibèrica S.A., Spain). Diabetes was induced by a single intraperitoneal injection of a freshly prepared solution of streptozotocin (in some studies the dose was 45 mg/kg body weight and in some others 100 mg/kg body weight dissolved in 50 mM citrate buffer, pH 4.5). Only diabetic animals with glycemia above 300 mg/dl were used. The animals were housed in animal quarters at 22° C., with a 12 h light/12 h dark cycle and were fed ad libitum. All procedures used were approved by the animal ethical committee of the University of Barcelona, Spain. […]
(§2) In glucose tolerance tests and in chronic treatments, circulating glucose concentrations were determined by a rapid glucose analyser (Accutrend® Sensor Comfort, Roche, Basel. Switzerland). Plasma insulin (IRI) concentration was determined by ELISA method using a kit obtained from Crystal Chem Inc. (Downers Grove, Ill.). Plasma triglycerides (Biosystems, Barcelona, Spain) and NEFAS (Wako Chemicals, Neuss, Germany) were determined with standard […] methods.
Insulin and glucose responses during the glucose tolerance test were calculated as the incremental plasma values integrated over a period of 120 min after injection of glucose. […] Data distribution was analyzed by the Kolmogorov-Smirnov test. […]

[5] = Tolerability in treated animals; type: in vivo
[6] = tested on: streptozotocin-induced diabetic rats; assay: Chronic oral treatment of streptozotocin (45 mg/kg) diabetic rats, glycemia; type: in vivo, rat
Experimental: as §1
Osmotic minipumps delivering B6V10 (2.5 μmol/kg body wt/day) or decavanadate (2.5 μmol/kg body wt/day) were implanted subcutaneously in diabetic rats anaesthetised by ketamine hydrochloride (95 mg/kg) and xylasine (10 mg/kg). […] Glycemia was measured on arterio-venous blood collected from the tail vessels at 09:00 am for two weeks, before the administration of vanadate. Insulin concentrations were determined before and after treatment. In another set of experiments, B6V10 was orally administered at a single dose of 5 μmol/kg/day during the first week and 10 μmol/kg/day during 2 additional weeks by gastric gavage. A control group received the corresponding decavanadate salt in the absence of benzylamine. At the end of the treatment, animals were sacrificed and the liver, fat pad, heart and lung were kept at −80° C. and the plasma at −20° C. until their use for in vitro analysis.
as §2
The effect of the oral administration of hexaquis(benzylammonium) decavanadate on glycemia from diabetic rats was also studied. Diabetes was induced in rats by intravenous administration of streptozotocin, and subsequently, a hexaquis(benzylammonium) decavanadate or sodium decavanadate unique dose was administered to the rats. […] After seven days of treatment, the dose was increased at 10 μmol/kg/day which was maintained for an additional ten days. […] Thus, glycemia in sodium decavanadate treated rats was approximately 450 mg/dl and glycemia of hexaquis(benzylammonium) decavanadate treated rats was approximately 250 mg/dl.
Chronic in vivo efficacy of B6V10 was evaluated in streptozotocin-induced diabetic rats and in db/db mice. Streptozotocin-induced (45 mg/kg) diabetic rats were subcutaneously treated with hexaquis(benzylammonium) decavanadate (2.5 μmol/kg) (B6V10, solid squares, FIG. 8A) or with decavanadate (2.5 μmol/kg) (V10, open circles, FIG. 8A) delivered subcutaneously by osmotic minipumps implanted in the dorsal region. Diabetic rats were also sham-operated (untreated, solid diamonds, FIG. 8A). […] These experiments were repeated using an oral administration protocol. Streptozotocin-induced (45 mg/kg) diabetic rats were orally treated with hexaquis(benzylammonium) decavanadate (5 μmol/kg from day 0 to day 7 and 10 μmol/kg/day from day 7 to day 17) (B6V10, solid squares, FIG. 8B) or received decavanadate (10 μmol/kg) (V10, open circles, FIG. 8B). Nondiabetic rats were also untreated (solid triangles, FIG. 8B).

Substance: hexaquis(benzylammonium) decavanadate (V) dihydrate [Entry B6V10]
- tyrosine phosphorylation of insulin receptors [1]: undetectable
- glycemia [2]: ameliorated glycemia
- adipocyte lipolysis [3]: inhibited adipocyte lipolysis
- glucose tolerance and plasma insulin levels [4]: ameliorated the pattern of plasma insulin levels; also recorded: amelioration of glucose tolerance and improved plasma insulin levels
- toxicological side effects ([5]; at the doses used): did not show toxicological side effects
- hypoglycemia ([5]; treated animals): did not cause hypoglycemia
- glycemia, oral 5 μmol/kg/day ([6]; 5 μmol/kg/day for seven days): moderate decrease of hyperglycemia that was detected after but two days of treatment
- glycemia, oral dose increased to 10 μmol/kg/day ([6]; 10 μmol/kg/day for an additional ten days): additional decrease in glycemia
- glycemia during chronic oral treatment ([6]; daily oral, 17 days (5 then 10 μmol/kg/day), STZ 45 mg/kg rats, dihydrate): ameliorated hyperglycemia; also recorded: significant correction of hyperglycemia
- glycemia ([6]; oral treatment, after dose increase to 10 μmol/kg/day): approximately 250 mg/dl
